Measured values as given in ChEMBL document CHEMBL1151047, “NS 257 (1,2,3,6,7,8-hexahydro-3(hydroxyimino)-N,N,7-trimethyl-2-oxobenzo[2,1-b:3,4-c']dipyrrole-5-sulfonamide) is a potent, systemically active ampa receptor antagonist” (Bioorg Med Chem Lett, 1994).

Tests used:
Mus musculus = test: Ability to block the AMPA-induced convulsant effects in mice upon intracerebroventricular injection; type: functional; conditions: central
[1] = biological target: Glutamate receptor ionotropic, AMPA (Rattus norvegicus, UniProt P19490+P19491+P19492+P19493); test: Binding affinity towards AMPA receptor to rat cortical membrane using [3H]AMPA as radioligand
[2] = biological target: Glutamate receptor ionotropic, NMDA 1 (Rattus norvegicus, UniProt P35439); test: Binding affinity towards glycine binding site of NMDA receptor to rat cortical membrane using [3H]glycine as radioligand
Glutamate NMDA receptor = test: Binding affinity towards glutamate binding site of NMDA receptor to rat cortical membrane using NMDA sensitive [3H]-glutamate as radioligand
[3] = biological target: Glutamate receptor ionotropic, kainate; test: Binding affinity towards kainate receptor to rat cortical membrane using [3H]kainate as radioligand
[4] = Compound was tested for neuronal damage produced by application of 500 uM kainate; type: functional
[5] = Inhibitory activity against lactate dehydrogenase release was determined; type: functional

| Compound | ED50 (Mus musculus) [mg/kg] | IC50 [1] [µM] | IC50 [2] [µM] | IC50 (Glutamate NMDA receptor) [µM] | IC50 [3] [µM] | IC50 [4] [µM] | IC50 [5] [µM] |
| --- | --- | --- | --- | --- | --- | --- | --- |
| NS(=O)(=O)c1cccc2c1c([N+](=O)[O-])cc1nc(O)c(O)nc12 [NBQX] | 10 |  |  |  |  |  |  |
| CN1Cc2c(S(=O)(=O)N(C)C)cc3c(N=O)c(O)[nH]c3c2C1 | 10 | 0.7 | > 100 | 44 | 13 | 10 | 9 |
